18 compounds from US20240300980A1, “HETEROCYCLIC COMPOUNDS AS KRAS INHIBITOR, AND PREPARATION THEREFOR AND USE THEREOF IN TREATMENT” (SHANGHAI KECHOW PHARMA, INC., priority 2021, published 2024) can be followed below.

One test has as its system AGS cells (KRAS^G12D). The test can be described thus: Detection of cell proliferation in vitro by MTT/MTS method (cell activity experiment). The settings on record: AGS cells; MTT/MTS; 3 days of drug treatment; read-out: AGS IC50. The test is classed as cell-based. As for the experimental part: The above cells were cultured in a complete medium containing 10% fetal bovine serum, 100 IU/mL penicillin and 100 jag/mL streptomycin, in the aseptic incubator with 95% relative humidity and 5% CO2 concentration.
2. Reagents: F12K, D-PBS, FBS, Penicillin Streptomycin, Tryple, MTT (5 mg/mL)
Appropriate amount of compound powder was weighed in a 1.5 mL centrifuge tube, then the corresponding volume of dimethyl sulfoxide (DMSO) was added to form a 20 mM reserve solution. The solution was packed separately and stored in a refrigerator at −20° C. away from light.
The cells were inoculated in a cell culture bottle, added an appropriate amount of complete medium, and cultured in a sterile incubator. When the degree of cell confluence reached more than 80%, subculture was carried out.
The adherent cells in logarithmic growth phase were digested by trypsin or the suspension cells were collected by centrifugation and counted. 90 μL cell suspension was inoculated into 96-well plate according to the cell inoculation density of 1000 cells per well, and 10 μL of 10-fold final concentration compound diluted by culture medium was added 24 hours later. Compared with the hole with the same volume of 5% DMSO as control, the final concentration of DMSO was 0.5%. After 3 days of drug treatment, the cell viability was detected by MTT. The specific methods are as follows: 10 μL MTT per well was added into the incubator for 4 hours, the supernatant was discarded and 150 μL DMSO was added to dissolve the crystal methylazan, and the absorbance of 490 nm was detected by enzyme labeling instrument, or 10 μL MITS per well was added to the incubator for 4 hours, and […] absorbance was detected directly by enzyme labeling instrument. GraphPad Prism 6 software makes dose-effect curve and calculates IC50.
One may read the IC50 as the concentration needed to halve the response being measured. As for `CCC1CCc2cc(O)cc(-c3ccc4c(N5C[C@H]6CC[C@@H](C5)N6)nc(OC[C@@]56CCCN5C[C@H](F)C6)nc4c3F)c21` (single isomer, unassigned) [Example 284], the IC50 was found to be 2200 nM.

On to `CCC1CCc2cc(O)cc(-c3ccc4c(N5C[C@H]6CC[C@@H](C5)N6)nc(OC[C@@]56CCCN5C[C@H](F)C6)nc4c3F)c21` (single isomer, unassigned) [Example 285], for which the IC50 amounted to 7 nM.

As to `CC1CCCc2cc(O)cc(-c3ccc4c(N5C[C@H]6CC[C@@H](C5)N6)nc(OC[C@@]56CCCN5C[C@H](F)C6)nc4c3F)c21` (single isomer, unassigned) [Example 287], the IC50 was 2140 nM.

Regarding `CC1CCCc2cc(O)cc(-c3ccc4c(N5C[C@H]6CC[C@@H](C5)N6)nc(OC[C@@]56CCCN5C[C@H](F)C6)nc4c3F)c21` (single isomer, unassigned) [Example 288], the IC50 amounted to 7.2 nM.

For `CCC1CCCc2cc(O)cc(-c3ccc4c(N5C[C@H]6CC[C@@H](C5)N6)nc(OC[C@@]56CCCN5C[C@H](F)C6)nc4c3F)c21` (single isomer, unassigned) [Example 290], the half-inhibitory concentration (IC50) was 3410 nM.

As to `CCC1CCCc2cc(O)cc(-c3ccc4c(N5C[C@H]6CC[C@@H](C5)N6)nc(OC[C@@]56CCCN5C[C@H](F)C6)nc4c3F)c21` (single isomer, unassigned) [Example 291], the IC50 amounted to 7.2 nM.

The same test, now with this note: Homo sapiens, AGS, 72 h, AGS cells; MTT/MTS; 3 days of drug treatment; read-out: AGS IC50.
Turning to `CC[C@@H]1CCc2cc(O)cc(-c3ncc4c(N5CC6CCC(C5)N6)nc(OC[C@@]56CCCN5C[C@H](F)C6)nc4c3F)c21` (single isomer, unassigned) [Example 221, (R)-7-(4-((1R,5S)-3,8-diazabicyclo[3.2.1]octan-3-yl)-8-fluoro-2-(((2R,7aS)-2-fluorotetrahydro-1H-pyrrolizin-7a(5H)-yl)methoxy)pyrido[4,3-d]pyrimidin-7-yl)-1-ethyl-2,3-dihydro-1H-inden-5-ol or (S)-7-(4-((1R,5S)-3,8-diazabicyclo[3.2.1]octan-3-yl)-8-fluoro-2-(((2R,7aS)-2-fluorotetrahydro-1H-pyrrolizin-7a(5H)-yl)methoxy)pyrido[4,3-d]pyrimidin-7-yl)-1-ethyl-2,3-dihydro-1H-inden-5-ol], the half-maximal inhibitory concentration (IC50) was 875 nM.

For the compound `CC[C@H]1CCc2cc(O)cc(-c3ncc4c(N5CC6CCC(C5)N6)nc(OC[C@@]56CCCN5C[C@H](F)C6)nc4c3F)c21` (single isomer, unassigned) [Example 222, (S)-7-(4-((1R,5S)-3,8-diazabicyclo[3.2.1]octan-3-yl)-8-fluoro-2-(((2R,7aS)-2-fluorotetrahydro-1H-pyrrolizin-7a(5H)-yl)methoxy)pyrido[4,3-d]pyrimidin-7-yl)-1-ethyl-2,3-dihydro-1H-inden-5-ol or (R)-7-(4-((1R,5S)-3,8-diazabicyclo[3.2.1]octan-3-yl)-8-fluoro-2-(((2R,7aS)-2-fluorotetrahydro-1H-pyrrolizin-7a(5H)-yl)methoxy)pyrido[4,3-d]pyrimidin-7-yl)-1-ethyl-2,3-dihydro-1H-inden-5-ol], the IC50 stood at 2.5 nM.

Consider `C[C@@H]1CCCc2cc(O)cc(-c3ncc4c(N5CC6CCC(C5)N6)nc(OC[C@@]56CCCN5C[C@H](F)C6)nc4c3F)c21` (single isomer, unassigned) [Example 225, (R)-4-(4-((1R,5S)-3,8-diazabicyclo[3.2.1]octan-3-yl)-8-fluoro-2-(((2R,7aS)-2-fluorotetrahydro-1H-pyrrolizin-7a(5H)-yl)methoxy)pyrido[4,3-d]pyrimidin-7-yl)-5-methyl-5,6,7,8-tetrahydronaphthalen-2-ol or (S)-4-(4-((1R,5S)-3,8-diazabicyclo[3.2.1]octan-3-yl)-8-fluoro-2-(((2R,7aS)-2-fluorotetrahydro-1H-pyrrolizin-7a(5H)-yl)methoxy)pyrido[4,3-d]pyrimidin-7-yl)-5-methyl-5,6,7,8-tetrahydronaphthalen-2-ol], for which the half-inhibitory concentration (IC50) came out at 668 nM.

Consider `C[C@H]1CCCc2cc(O)cc(-c3ncc4c(N5CC6CCC(C5)N6)nc(OC[C@@]56CCCN5C[C@H](F)C6)nc4c3F)c21` (single isomer, unassigned) [Example 226, (S)-4-(4-((1R,5S)-3,8-diazabicyclo[3.2.1]octan-3-yl)-8-fluoro-2-(((2R,7aS)-2-fluorotetrahydro-1H-pyrrolizin-7a(5H)-yl)methoxy)pyrido[4,3-d]pyrimidin-7-yl)-5-methyl-5,6,7,8-tetrahydronaphthalen-2-ol or (R)-4-(4-((1R,5S)-3,8-diazabicyclo[3.2.1]octan-3-yl)-8-fluoro-2-(((2R,7aS)-2-fluorotetrahydro-1H-pyrrolizin-7a(5H)-yl)methoxy)pyrido[4,3-d]pyrimidin-7-yl)-5-methyl-5,6,7,8-tetrahydronaphthalen-2-ol], for which the IC50 came to 2.4 nM.

With `CC[C@@H]1CCCc2cc(O)cc(-c3ncc4c(N5CC6CCC(C5)N6)nc(OC[C@@]56CCCN5C[C@H](F)C6)nc4c3F)c21` (single isomer, unassigned) [Example 228, (R)-4-(4-((1R,5S)-3,8-diazabicyclo[3.2.1]octan-3-yl)-8-fluoro-2-(((2R,7aS)-2-fluorotetrahydro-1H-pyrrolizin-7a(5H)-yl)methoxy)pyrido[4,3-d]pyrimidin-7-yl)-5-ethyl-5,6,7,8-tetrahydronaphthalen-2-ol or (S)-4-(4-((1R,5S)-3,8-diazabicyclo[3.2.1]octan-3-yl)-8-fluoro-2-(((2R,7aS)-2-fluorotetrahydro-1H-pyrrolizin-7a(5H)-yl)methoxy)pyrido[4,3-d]pyrimidin-7-yl)-5-ethyl-5,6,7,8-tetrahydronaphthalen-2-ol], the IC50 was 1090 nM.

Regarding `CC[C@H]1CCCc2cc(O)cc(-c3ncc4c(N5CC6CCC(C5)N6)nc(OC[C@@]56CCCN5C[C@H](F)C6)nc4c3F)c21` (single isomer, unassigned) [Example 229, (S)-4-(4-((1R,5S)-3,8-diazabicyclo[3.2.1]octan-3-yl)-8-fluoro-2-(((2R,7aS)-2-fluorotetrahydro-1H-pyrrolizin-7a(5H)-yl)methoxy)pyrido[4,3-d]pyrimidin-7-yl)-5-ethyl-5,6,7,8-tetrahydronaphthalen-2-ol or (R)-4-(4-((1R,5S)-3,8-diazabicyclo[3.2.1]octan-3-yl)-8-fluoro-2-(((2R,7aS)-2-fluorotetrahydro-1H-pyrrolizin-7a(5H)-yl)methoxy)pyrido[4,3-d]pyrimidin-7-yl)-5-ethyl-5,6,7,8-tetrahydronaphthalen-2-ol], the IC50 turned out to be 2.5 nM.

For `C#Cc1cccc2cc(O)cc(-c3ncc4c(N5C[C@H]6CC[C@@H](C5)N6)nc(OCC5(CN6CCCC6)CC5)nc4c3F)c12` [Example 1, 4-(4-((1R,5S)-3,8-diazabicyclo[3.2.1]octan-3-yl)-8-fluoro-2-((1-(pyrrolidin-1-ylmethyl)cyclopropyl)methoxy)pyrido[4,3-d]pyrimidin-7-yl)-5-ethynyl naphthalen-2-ol], the IC50 worked out at 8.1 nM.

In the case of `CCc1c(F)ccc2cc(O)cc(-c3ncc4c(N5C[C@H]6CC[C@@H](C5)N6)nc(OCC5(CN6CCCC6)CC5)nc4c3F)c12` [Example 3, 4-(4-((1R,5S)-3,8-diazabicyclo[3.2.1]octan-3-yl)-8-fluoro-2-((1-(pyrrolidin-1-ylmethyl)cyclopropyl)methoxy)pyrido[4,3-d]pyrimidin-7-yl)-5-ethyl-6-fluoronaphthalen-2-ol], the half-inhibitory concentration (IC50) was determined as 4.5 nM.

`CCc1cccc2cc(O)cc(-c3ncc4c(N5C[C@H]6CC[C@@H](C5)N6)nc(OCC5(CN6CCCC6)CC5)nc4c3F)c12` [Example 4, 4-(4-((1R,5S)-3,8-diazabicyclo[3.2.1]octan-3-yl)-8-fluoro-2-((1-(pyrrolidin-1-ylmethyl)cyclopropyl)methoxy)pyrido[4,3-d]pyrimidin-7-yl)-5-ethylnaphthalen-2-ol]: the IC50 stood at 11 nM.

Take `Oc1cc(-c2ncc3c(N4C[C@H]5CC[C@@H](C4)N5)nc(OCC4(CN5CCCC5)CC4)nc3c2F)c2c(F)c(F)ccc2c1` [Example 5, 4-(4-((1R,5S)-3,8-diazabicyclo[3.2.1]octan-3-yl)-8-fluoro-2-((1-(pyrrolidin-1-ylmethyl)cyclopropyl)methoxy)pyrido[4,3-d]pyrimidin-7-yl)-5,6-difluoronaphthalen-2-ol]: the IC50 amounted to 3.8 nM.

Consider `Oc1cc(-c2ncc3c(N4C[C@H]5CC[C@@H](C4)N5)nc(OCC4(CN5CCCC5)CC4)nc3c2F)c2c(F)cccc2c1` [Example 6, 4-(4-((1R,5S)-3,8-diazabicyclo[3.2.1]octan-3-yl)-8-fluoro-2-((1-(pyrrolidin-1-ylmethyl)cyclopropyl)methoxy)pyrido[4,3-d]pyrimidin-7-yl)-5-fluoronaphthalen-2-ol], for which the concentration for half-maximal inhibition (IC50) is 14 nM.

For `Nc1cc2ccccc2c(-c2ncc3c(N4C[C@H]5CC[C@@H](C4)N5)nc(OCC4(CN5CCCC5)CC4)nc3c2F)n1` [Example 7, 1-(4-((1R,5S)-3,8-diazabicyclo[3.2.1]octan-3-yl)-8-fluoro-2-((1-(pyrrolidin-1-ylmethyl)cyclopropyl)methoxy)pyrido[4,3-d]pyrimidin-7-yl)isoquinolin-3-amine], the 50% inhibitory concentration (IC50) stood at 2580 nM.
